One block for each compound: values may come before it.
How the values were obtained:
[1] = test system: serotonin type 2 receptor sites; assay: 5-HT2-mediated DOI-induced headshake response in rat; assay type: in vivo; settings: acute effect
Method: The efficacy of nef-triazoldione at serotonin type 2 receptor sites in vivo was determined by examining its acute effect in a rat model based on the 5-HT2 -mediated DOI (chemically, 1-(2,5-dimethoxy-4-iodophenyl)-2-aminopropane)-induced headshake response. Cf: Bedard and Pycock, Neuropharmacology 16: 663-670 (1977). […] Thus the in vivo results which correlate with selective in vitro binding are indicative of useful antidepressant effects following systemic administration of these compounds.

serotonin receptors = assay: in vitro binding, serotonin receptors; settings: in vitro binding testing
Text: (§1) The Formula I compounds are useful pharmacologic agents with psychotropic properties. […] Specifically, nefazodone triazoldione (XIb, "nef-triazoldione") was comparatively tested with nefazodone and the 5-hydroxyethyl metabolite ("OH-nefazodone"). […] The latter observation is significant in that agents with low affinity for alpha-receptors relative to serotonin type 2 receptors are less likely to elicit certain undesirable side effects, such as sedation and lowering of blood pressure.

[2] = circulating metabolite after nefazodone administration to humans and animals; assay type: in vivo, humans and animals (rat and dog)
Text: The present invention concerns compounds of Formula I and their acid addition salts and/or hydrates. [drawing 3] In the foregoing structural formula the symbol R denotes halogen, preferably chloro, and trifluoromethyl; Z is hydrogen and [drawing 4] with R^1 being hydrogen, halogen, C1-4 alkoxy and trifluoromethyl; and n is an integer from 2-4. The symbol X is either an oxygen atom, providing a carbonyl moiety; or is an acetyl group. The single and dotted lines represent either a covalent single bond or a double bond. The compounds of Formula I exist then in two structural subclasses, Ia and Ib. [drawing 5] Compounds of formula I arose from investigations of the metabolism of the antidepressant drug nefazodone. […] Subsequently, this new major metabolite was isolated and identified as having the following structure: [drawing 6]
It should be appreciated that compound Ib could also be obtained by enzymatic (human liver microsomes) conversion of compound Ia in vitro. Administration of nefazodone or structural analogs to mammals will result in significant plasma levels of the related Ib compounds. By "significant plasma levels" is meant that these levels are from one to several-fold higher than those of the parent drug.

cholinergic receptor = cholinergic receptor binding; settings: in vitro binding
Text: as §1

[3] = test system: serotonin type 2 receptors; assay: in vitro binding, serotonin type 2 receptors; settings: compared with nefazodone and OH-nefazodone
Text: as §1

dopamine receptor = dopamine receptor binding; settings: in vitro binding
Text: as §1

alpha-receptor = alpha-receptor binding; settings: in vitro binding
Text: as §1

[4] = metabolite conversion experiment with in vitro human liver microsomal preparation; assay type: in vitro ADME; settings: compound as substrate
[5] = HPLC of plasma from dogs given nefazodone; assay type: in vivo, dog; settings: identified by HPLC retention time only
Text: The similarity of HPLC retention times for both keto-nefazodone and the parent drug nefazodone in many HPLC systems, as well as the small amount of the compound complicate the detection of this putative metabolite.

[6] = compared with nefazodone and OH-nefazodone

- cholinergic receptor binding (cholinergic receptor): relatively inactive
- dopamine receptor binding (dopamine receptor): relatively inactive
- alpha-receptor binding (alpha-receptor): relatively inactive
Structure (SMILES): Cl.O=c1[nH]n(CCCN2CCN(c3cccc(Cl)c3)CC2)c(=O)n1CCOc1ccccc1 [nef-triazoldione, 2-(3-[4-(3-Chlorophenyl)-1-piperazinyl]propyl)-4-(2-phenoxyethyl)-4H-1,2,4-triazole-3,5(1H,2H)-dione hydrochloride]
- inhibition of the DOI-induced headshake response [1]: modest inhibition
- potency in DOI-induced headshake test relative to reference compounds [1, 6]: less potent than either nefazodone or OH-nefazodone
- affinity for serotonin receptors (serotonin receptors): displays affinity for serotonin receptors
- metabolite in urine or bile samples ([2]; following nefazodone administration): No indication of this circulating metabolite had been seen in urine or bile samples
- blood levels of metabolite ([2]; following nefazodone administration to humans and animals (rat and dog)): Blood levels of a new and uncharacterized major metabolite of nefazodone were observed
- binding at serotonin type 2 receptors [3]: not as robust as for both nefazodone and OH-nefazodone
- affinity at alpha-receptor binding sites relative to reference compounds (alpha-receptor; [6]): lower affinity at alpha-receptor binding sites than the two reference compounds

Structure (SMILES): CCc1nn(CCCN2CCN(c3cccc(Cl)c3)CC2)c(=O)n1CCOc1ccccc1 [nefazodone, Nefazodone]
- affinity for serotonin receptors (serotonin receptors): displays affinity for serotonin receptors

Structure (SMILES): CC(O)c1nn(CCCN2CCN(c3cccc(Cl)c3)CC2)c(=O)n1CCOc1ccccc1 (centres unmarked) [OH-nefazodone]
- affinity for serotonin receptors (serotonin receptors): displays affinity for serotonin receptors

- amount in plasma by HPLC [5]: small amounts
Structure (SMILES): CC(=O)c1nn(CCCN2CCN(c3cccc(Cl)c3)CC2)c(=O)n1CCOc1ccccc1.Cl [keto-nefazodone, 2-(3-[4-(3-Chlorophenyl)-1-piperazinyl]propyl)-5-acetyl-2,4-dihydro-4-(2-phenoxyethyl)-3H-1,2,4-triazol-3-one hydrochloride]
- metabolite produced from substrate [4]: nefazodone triazoldione (XIb) was produced and isolated
